{"source": "patent US20130143969A1", "about": "(THE OHIO STATE UNIVERSITY, priority 2010, published 2013)", "key": {"DNMT3a [1]": {"system": "DNMT3a", "experiment": "DNMT3a mRNA in MV4-11 engrafted tumor tissues", "format": "in vivo", "conditions": "MV4-11 engrafted mice, curcumin i.p. 100 mg/kg", "description": "(§1) Quantitative RT-PCR was used to quantify the mRNA levels of DNMT1, DNMT3a, DNMT3b, p15INK4B and p21. Total RNA was extracted with Trizol reagent (Invitrogen, Carlsbad, Calif.) and reverse transcribed by reverse transcriptase (Invitrogen). Quantitative real-time PCR reactions were performed in triplicate using Taqman gene expression assay (Applied Biosystems) with an ABI prism 7700 detector (Applied Biosystems). The target gene values were normalized to the values of internal control GAPDH or 18 S, and expressed as relative percent change (100×2^(˜ΔΔCt)) over non-treated samples.\nFemale athymic nu/nu mice (4-6 weeks old, 18-22 g) were obtained from Charles River Laboratory (Wilmington, Mass.) and acclimated for 1 week in a pathogen-free enclosure before start of study. Animals were given sterile rodent chow and water ad libitum and were housed in sterile filter-top cages with 12 hour light/dark cycles. All experiments were conducted in accordance with the guidelines of the Association for Assessment and Accreditation of Laboratory Animal Care International. […] Tumor volume was calculated by using the equation V=2×A×B^2/3, where A is the longer (horizontal as width) diameter (mm) and B is the shorter (perpendicular as depth) diameter (mm) and expressed in cubic millimeter. […]"}, "DNMT3a [2]": {"system": "DNMT3a", "experiment": "Western blot of DNMT3a protein in MV4-11 cells", "format": "cell-based", "description": "(§2) Cell Cycle and Apoptosis Analysis: MV4-11, ML-1, HL-60 and K562 leukemia cell lines were cultured in RPMI medium (VWR International, Inc., West Chester, Pa.) supplemented with 10% fetal bovine serum (Invitrogen, Carlsbad, Calif.) and 1% (v/v) penicillin/streptomycin (Invitrogen Life Technologies; Carlsbad, Calif.) antibiotic solution at 37° C. in an incubator under 5% CO2 atmosphere. […] The cell cycle and apoptosis of MV4-11 cells was analyzed on a BD FACS Calibur (Beckman Coulter, Fullerton, Calif.) according to the standard protocol provided by the manufacturer.\n(§3) Cells or tumor tissues were homogenized and lysed in ice-cold lysis buffer (20 mM, pH 7.0 HEPES, 150 mM NaCl, 0.1% NP40 supplemented with 1 mM β-glycerophosphate, 1 mM Na3VO4, 1 mM NaF, 1 mM benzamide and 1 mM phenylmethylsulfonyl fluoride) with protease inhibitors (Protease Inhibitor cocktail Set III, Calbiochem-Novabiochem Corporation, La Jolla, Calif.), and incubated on ice for 20 mM. […] The immunoblotted proteins were detected by ECL reagent (GE Healthcare Bio-Sciences Corp., Piscataway, N.J.)."}, "[3]": {"experiment": "Stability of curcumin in reconstituted solution in auto-sampler at 4° C", "format": "physicochemical", "conditions": "auto-sampler 4° C, up to 8 hours", "source_text": "(§4) Therefore, all mouse blood and plasma samples have to be processed on ice to avoid potential degradation for its pharmacokinetic studies."}, "DNMT3b": {"system": "DNMT3b", "experiment": "Western blot of DNMT3b protein in MV4-11 cells", "format": "cell-based", "description": "as §2, §3"}, "MV4-11 cells [4]": {"system": "MV4-11 cells", "experiment": "Apoptosis analysis", "format": "cell-based", "conditions": "10 μM curcumin", "description": "as §2, with “atmosphere. For the ex-vivo studies, mononuclear cells obtained from bone marrow (BM) of patient with AML were prepared by Ficoll-Hypaque (Nygaard) gradient centrifugation and cultured with serum-free expansion medium (SFEM) (StemCell technologies, Vancouver, BC) supplemented with GM-CSF (50 ng/ml), IL-3 (20 ng/ml), IL-6 (20 ng/ml) and SCF ([…]).” for “atmosphere.”"}, "MV4-11 cells [5]": {"system": "MV4-11 cells", "experiment": "Cell viability / anti-proliferation", "format": "cell-based"}, "[6]": {"experiment": "In-vitro stability of curcumin in mouse plasma at 37° C", "format": "in vitro ADME", "source_text": "as §4"}, "DNMT3a [7]": {"system": "DNMT3a", "experiment": "Quantitative RT-PCR of DNMT3a mRNA in MV4-11 cells", "format": "cell-based", "conditions": "10 μM", "description": "as §2, with “atmosphere. For the ex-vivo studies, mononuclear cells obtained from bone marrow (BM) of patient with AML were prepared by Ficoll-Hypaque (Nygaard) gradient centrifugation and cultured with serum-free expansion medium (SFEM) (StemCell technologies, Vancouver, BC) supplemented with GM-CSF (50 ng/ml), IL-3 (20 ng/ml), IL-6 (20 ng/ml) and SCF ([…]).” for “atmosphere.”\nas §1, with “Total RNA was extracted with Trizol reagent (Invitrogen, Carlsbad, Calif.) and reverse transcribed by reverse transcriptase (Invitrogen).” left out"}, "[8]": {"system": "MV4-11 leukemia cell-engrafted animal model", "experiment": "Xenograft animal model, anti-tumor growth activity", "format": "in vivo, athymic nu/nu mice", "description": "Female athymic nu/nu mice (4-6 weeks old, 18-22 g) were obtained from Charles River Laboratory (Wilmington, Mass.) and acclimated for 1 week in a pathogen-free enclosure before start of study. Animals were given sterile rodent chow and water ad libitum and were housed in sterile filter-top cages with 12 hour light/dark cycles. All experiments were conducted in accordance with the guidelines of the Association for Assessment and Accreditation of Laboratory Animal Care International. MV4-11 cells (5×10^6 cells per mouse) were suspended with 50% Matrigel (Becton Dickinson) and subcutaneously implanted into both right and left flanks of the athymic nu/nu mice. When tumors were grown between 100 to 200 mm^3, treatments were initiated. Mice were randomly assigned into two cohorts for the anti-tumor growth activity studies, with 6 mice per group. […] Tumor volume was calculated by using the equation V=2×A×B^2/3, where A is the longer (horizontal as width) diameter (mm) and B is the shorter (perpendicular as depth) diameter (mm) and expressed in cubic millimeter. After 4 weeks, mice were euthanized and tumor tissues were excised, snapfrozen in liquid nitrogen, weighed and stored in a −80° C. freezer until analysis."}, "in vivo": {"experiment": "in vivo", "conditions": "CD2F1, mouse, in vivo", "source_text": "Extracts of bio-matrices were subjected to HPLC mass spectrometric analysis."}, "MV4-11 cells [9]": {"system": "MV4-11 cells", "experiment": "Cell cycle distribution by flow cytometry", "format": "cell-based", "conditions": "10 μM curcumin, 48 hour", "description": "as §2, with “atmosphere. For the ex-vivo studies, mononuclear cells obtained from bone marrow (BM) of patient with AML were prepared by Ficoll-Hypaque (Nygaard) gradient centrifugation and cultured with serum-free expansion medium (SFEM) (StemCell technologies, Vancouver, BC) supplemented with GM-CSF (50 ng/ml), IL-3 (20 ng/ml), IL-6 (20 ng/ml) and SCF ([…]).” for “atmosphere.”"}, "[10]": {"conditions": "rats, orally administered; cited from earlier work"}, "DNMT1": {"system": "DNMT1", "experiment": "Ex vivo DNMT1 mRNA and protein in AML patient primary blast cells", "format": "cell-based, human", "description": "as §2, §3\nQuantitative RT-PCR was used to quantify the mRNA levels of DNMT1, DNMT3a, DNMT3b, p15INK4B and p21. […] Quantitative real-time PCR reactions were performed in triplicate using Taqman gene expression assay (Applied Biosystems) with an ABI prism 7700 detector (Applied Biosystems). […]"}, "K562": {"system": "K562", "experiment": "Cytotoxicity", "format": "cell-based", "conditions": "Homo sapiens"}, "p15^INK4B": {"system": "p15^INK4B", "experiment": "Quantitative RT-PCR of p15INK4B mRNA in leukemia cells", "format": "cell-based", "conditions": "for increase of p15INK4B expression level: MV4-11 cells, 10 μM curcumin", "description": "as §2, with “atmosphere. For the ex-vivo studies, mononuclear cells obtained from bone marrow (BM) of patient with AML were prepared by Ficoll-Hypaque (Nygaard) gradient centrifugation and cultured with serum-free expansion medium (SFEM) (StemCell technologies, Vancouver, BC) supplemented with GM-CSF (50 ng/ml), IL-3 (20 ng/ml), IL-6 (20 ng/ml) and SCF ([…]).” for “atmosphere.”\nas §1"}, "[11]": {"conditions": "day 29 after the treatment, i.p. 100 mg/kg"}}, "note": "pIC50: −log10 of the molar value.", "data": [{"smiles": "COc1cc(/C=C/C(=O)CC(=O)/C=C/c2ccc(O)c(OC)c2)ccc1O", "note": "[curcumin]", "values": [{"measurement": "mRNA level of DNMT3a in engrafted tissues", "setting": "DNMT3a [1]", "result": "significantly decreases"}, {"measurement": "DNMT3a protein level reduction", "setting": "DNMT3a [2]", "result": 50, "unit": "%"}, {"measurement": "% of original concentrations remaining", "setting": "[3]", "result": "> 85", "unit": "%"}, {"measurement": "DNMT3b protein level reduction", "setting": "DNMT3b", "result": 50, "unit": "%"}, {"measurement": "portion of apoptotic cells", "setting": "MV4-11 cells [4]", "result": "~30", "unit": "%"}, {"measurement": "pIC50", "setting": "MV4-11 cells [5]; Homo sapiens, MV4-11", "result": "4.82 to 5.00"}, {"measurement": "cell viability decreased to", "setting": "MV4-11 cells [5]; MV4-11 cells (FIG. 13B)", "result": "60-70%"}, {"measurement": "half-life", "setting": "[6]", "result": 23.6, "unit": "min"}, {"measurement": "curcumin level (below detection limit)", "setting": "[6]; by 4 hour", "result": "< 1", "unit": "ng/mL"}, {"measurement": "curcumin decomposed", "setting": "[6]; in 2 hours", "result": "more than 97%"}, {"measurement": "DNMT3a mRNA level, % of the control", "setting": "DNMT3a [7]; 48 h", "result": 50, "unit": "%"}, {"measurement": "DNMT3a mRNA level, % of the control", "setting": "DNMT3a [7]; 72 h", "result": 20, "unit": "%"}, {"measurement": "tumor size decrease", "setting": "[8]; MV4-11 engrafted nude mice (summary)", "result": "about 65%"}, {"measurement": "reduction of tumor size", "setting": "[8]; [11]", "result": 3854, "unit": "mm^3"}, {"measurement": "reduction of tumor weight", "setting": "[8]; [11]", "result": 65, "unit": "%"}, {"measurement": "body weight", "setting": "[8]; i.p. 100 mg/kg five days a week, 4 weeks", "result": "No significant weight loss"}, {"measurement": "decrease of tumor growth rate compared with control", "setting": "[8]; i.p. 100 mg/kg, linear mixed effect model", "result": 142.5, "unit": "mm^3 per day"}, {"measurement": "life span of MV4-11 engrafted nude mice", "setting": "[8]; pilot study", "result": 6, "unit": "weeks"}, {"measurement": "average tumor weight", "setting": "[8]; treatment group", "result": 3.6, "unit": "g"}, {"measurement": "concentration at 10 min", "setting": "in vivo", "result": 1620, "unit": "ng/mL"}, {"measurement": "concentration at 20 min", "setting": "in vivo", "result": 1620, "unit": "ng/mL"}, {"measurement": "concentration at 30 min", "setting": "in vivo", "result": 2450, "unit": "ng/mL"}, {"measurement": "concentration at 45 min", "setting": "in vivo", "result": 661, "unit": "ng/mL"}, {"measurement": "concentration at 60 min", "setting": "in vivo", "result": 448, "unit": "ng/mL"}, {"measurement": "concentration at 90 min", "setting": "in vivo", "result": 135, "unit": "ng/mL"}, {"measurement": "concentration at 120 min", "setting": "in vivo", "result": 231, "unit": "ng/mL"}, {"measurement": "concentration at 240 min", "setting": "in vivo", "result": 169, "unit": "ng/mL"}, {"measurement": "concentration at 480 min", "setting": "in vivo", "result": 58.3, "unit": "ng/mL"}, {"measurement": "cell population in G0/G1 phase", "setting": "MV4-11 cells [9]", "result": 52.0, "unit": "%"}, {"measurement": "cell population in G2/M phase", "setting": "MV4-11 cells [9]", "result": 8.0, "unit": "%"}, {"measurement": "cell population in S phase", "setting": "MV4-11 cells [9]", "result": 16.1, "unit": "%"}, {"measurement": "cell population in SubG1 phase", "setting": "MV4-11 cells [9]", "result": 24.9, "unit": "%"}, {"measurement": "elimination half-life (T1/2)", "setting": "[10]", "result": "102 ± 30", "unit": "min"}, {"measurement": "DNMT1 mRNA", "setting": "DNMT1", "result": "down-regulate"}, {"measurement": "DNMT1 protein level", "setting": "DNMT1", "result": "down-regulate"}, {"measurement": "pIC50", "setting": "K562", "result": 4.98}, {"measurement": "p15INK4B reactivation", "setting": "p15^INK4B; AML primary blast cells", "result": "reactivated"}, {"measurement": "p15INK4B reactivation", "setting": "p15^INK4B; HL-60 leukemia cells", "result": "reactivated"}, {"measurement": "increase of p15INK4B expression level", "setting": "p15^INK4B; 48 hours", "result": "approximately 12 fold"}, {"measurement": "increase of p15INK4B expression level", "setting": "p15^INK4B; 72 hours", "result": "~43", "unit": "fold"}]}]}
